Consider eight molecules from ChEMBL document CHEMBL5036379, “Identification of Slow-Binding Inhibitors of the BoNT/A Protease” (ACS Med Chem Lett, 2022).

Structures are written as SMILES. Active and inactive are the calls of the source. No cut-off for these calls is given here. A value given as a limit tells only on which side of the number the result lay.

Data set [1] deals with Botulinum neurotoxin type A (Clostridium botulinum, UniProt P0DPI0). The data set is described as follows: Inhibition of Clostridium botulinum BoNT/A light chain assessed as inhibition constant at 10 nM using SNAPtide flp6 as substrate measured after 30 mins by FRET assay.
Sequence of Botulinum neurotoxin type A (P0DPI0 2-448 limits assumed): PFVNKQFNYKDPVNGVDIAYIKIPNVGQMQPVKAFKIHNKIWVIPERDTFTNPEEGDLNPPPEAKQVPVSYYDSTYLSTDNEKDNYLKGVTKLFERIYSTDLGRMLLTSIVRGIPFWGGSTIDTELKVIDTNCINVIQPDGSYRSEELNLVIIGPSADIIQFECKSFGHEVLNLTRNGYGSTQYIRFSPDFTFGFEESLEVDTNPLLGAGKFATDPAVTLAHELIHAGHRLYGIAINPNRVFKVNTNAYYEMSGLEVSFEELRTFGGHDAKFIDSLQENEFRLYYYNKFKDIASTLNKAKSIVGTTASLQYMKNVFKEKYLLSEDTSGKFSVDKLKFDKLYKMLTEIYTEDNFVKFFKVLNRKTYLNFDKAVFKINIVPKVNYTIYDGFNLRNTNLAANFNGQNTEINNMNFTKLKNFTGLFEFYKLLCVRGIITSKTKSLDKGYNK
The target in data set [2] is Botulinum neurotoxin type A (Clostridium botulinum) (UniProt P0DPI0). The data set is described as follows: Inhibition of Clostridium botulinum BoNT/A light chain assessed as inhibition constant at 6 to 30 uM using SNAPtide flp6 as substrate measured after 30 mins by FRET assay. The following applies: dose 6-30 µM.
Sequence of Botulinum neurotoxin type A (Clostridium botulinum) (P0DPI0 2-448 limits assumed): as above
The nature of data set [3]: Half life of compound. In kind it is physicochemical.
Data set [4] concerns the target Botulinum neurotoxin type A (Clostridium botulinum) (UniProt P0DPI0). The data set is described as follows: Inhibition of BoNT/A light chain at 1 to 32 uM using SNAPtide flp6 as substrate measured after 30 mins by FRET assay. Conditions: dose 1-32 µM, TDE = time-dependent effect.

Take `C=CCN(O)C(=O)/C=C/c1ccc(Cl)cc1Cl`: the inhibition constant (Ki) in data set [1] was > 16 µM.

Turning to `C=CN(O)C(=O)/C=C/c1ccc(Cl)cc1Cl`, the inhibition constant Ki in data set [1] was > 32 µM. As for `O=C(/C=C/c1ccc(Cl)cc1Cl)N(O)CCCCCC1CC1`, the inhibition entry in data set [2] was “Active”. Also, the half-life in data set [3] was 33 min. With `C=CCCCCCN(O)C(=O)/C=C/c1ccc(Cl)cc1Cl`, in data set [1], the Ki worked out at 4.66 µM. Moreover, in data set [4], the inhibition result is “Tde”. Regarding `CCCCCCCN(O)C(=O)/C=C/c1ccc(Cl)cc1Cl`, the inhibition constant Ki in data set [1] was 2.47 µM. Consider `C=CCCCCCCN(O)C(=O)/C=C/c1ccc(Cl)cc1Cl`, for which the Ki in data set [1] was found to be 2.84 µM. Besides, in data set [4], the inhibition entry is “Tde”. As to `C=CCCCN(O)C(=O)/C=C/c1ccc(Cl)cc1Cl`, the inhibitory constant (Ki) in data set [1] is > 8 µM. Further, the inhibition entry in data set [4] is “Tde”. Take `C=CCCCCN(O)C(=O)/C=C/c1ccc(Cl)cc1Cl`: the inhibition constant Ki in data set [1] amounted to 6.31 µM. Also, in data set [4], the inhibition entry was “Tde”.

For orientation: Ki means the dissociation constant of the complex between target and ligand, obtained from inhibition or displacement. One may read the half-life as how long it takes for the measured level to halve. Low values mean fast loss, high ones slow loss.
